{"source": "patent US20030215397A1", "about": "“Method of treatment of skin diseases related to microbial antigens in the skin” (priority 2002, published 2003)", "key": {"psoriatic lesion": {"test_system": "psoriatic lesion", "test": "Topical treatment of a psoriatic lesion in a patient, appearance of the lesion", "format": "in vivo, human", "conditions": "person with severe psoriasis; pump spray with 40% by weight isopropyl myristate in alcohol carrier, on one lesion twice a day for two weeks", "procedure": "A person, suffering from severe psoriasis came for treatment. Their psoriasis had become severe at a time about 20 years earlier when they had recurring sore throats and tonsilitis. Their sore throats had ceased, but their psoriasis persisted. A blood sample was taken to measure […] antibody level to Dnase-B, a streptococcal exoenzyme; It was determined that they were a streptococcal carrier. A 4 mm punch biopsy was taken at the same time from a psoriatic plaque on their posterior thigh. The biopsy was first exposed to an antibody to Streptozyme®, and stained using the LSAB test.\nThe patient was provided with a pump spray bottle containing 40% by weight of isopropyl myristate in an alcohol carrier, and instructed to spray the liquid on one particular lesion twice a day for two weeks. […] That site was biopsied and given the LSAB test, as before. The stain was negative, indicating the cleansing of the streptococcal antigen from the skin that had been treated with the 40% isopropyl myristate spray, and it was accompanied by a clearing of the lesion.\nThe composition in each case is liberally applied and the patient otherwise is permitted to carry out the usual hygiene, showering or bathing. […]"}, "[1]": {"test_system": "streptococcal antigen (Dnase-B) in the skin", "test": "LSAB stain (antibody to Streptozyme) of a biopsy from the treated psoriatic lesion site", "format": "in vivo, streptococci", "conditions": "person with severe psoriasis; pump spray with 40% by weight isopropyl myristate in alcohol carrier, on one lesion twice a day for two weeks; stain positive before treatment", "procedure": "Anti-body levels of many such patients, to streptococcal exoenzymes, deoxyribonuclease B, hyaluronidase, streptolysin O, and Streptozyme (a commercial product made from streptococci and containing Dnase-B as one of its constituents., a registered trademark of Carter-Wallace, Inc. and available from Wampole Labs, of Cranbury, N.J.), when measured will be found to be elevated prior to the treatment in accordance with this invention. The presence of these antigens are tested for by using a primary rabbit polyclonal antibody to, e.g., Streptozyme® with a linked streptavidin biotin alkaline phosphatase (“LSAB”) amplification stain, available from Dako, of Carpinteria, Calif. A prominent red stain on the biopsied skin indicates the presence of the antigens.\nA person, suffering from severe psoriasis came for treatment. Their psoriasis had become severe at a time about 20 years earlier when they had recurring sore throats and tonsilitis. Their sore throats had ceased, but their psoriasis persisted. A blood sample was taken to measure […] antibody level to Dnase-B, a streptococcal exoenzyme; It was determined that they were a streptococcal carrier. A 4 mm punch biopsy was taken at the same time from a psoriatic plaque on their posterior thigh. The biopsy was first exposed to an antibody to Streptozyme®, and stained using the LSAB test. […]"}}, "data": [{"smiles": "CCCCCCCCCCCCCC(=O)OC(C)C", "note": "[isopropyl myristate]", "values": [{"measurement": "clearing of the sprayed lesion", "setting": "psoriatic lesion", "result": "substantially clear of the disease"}, {"measurement": "LSAB stain for streptococcal antigen in the biopsied treated site", "setting": "[1]", "result": "negative"}]}]}
